In patent US9029359B2, “Heteroaryl Btk inhibitors” (Biogen Idec MA, Inc., priority 2009, dated 2015):

Each compound was assayed against T1, BTK (Homo sapiens, UniProt Q06187) (assay: In vitro BTK kinase assay: BTK-POLYGAT-LS ASSAY). Settings: ATP 10 uM.
T1 construct: purchased Upstate 14-552
Format: biochemical
Method in brief: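 BTK phosphorylation of polyGAT (100 nM final) with ATP at 10 μM final, 10 mM Tris-HCl pH 7.5 kinase buffer, quenched by EDTA after 30 min. Potency given as IC50.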

T1 sequence (Q06187 whole entry): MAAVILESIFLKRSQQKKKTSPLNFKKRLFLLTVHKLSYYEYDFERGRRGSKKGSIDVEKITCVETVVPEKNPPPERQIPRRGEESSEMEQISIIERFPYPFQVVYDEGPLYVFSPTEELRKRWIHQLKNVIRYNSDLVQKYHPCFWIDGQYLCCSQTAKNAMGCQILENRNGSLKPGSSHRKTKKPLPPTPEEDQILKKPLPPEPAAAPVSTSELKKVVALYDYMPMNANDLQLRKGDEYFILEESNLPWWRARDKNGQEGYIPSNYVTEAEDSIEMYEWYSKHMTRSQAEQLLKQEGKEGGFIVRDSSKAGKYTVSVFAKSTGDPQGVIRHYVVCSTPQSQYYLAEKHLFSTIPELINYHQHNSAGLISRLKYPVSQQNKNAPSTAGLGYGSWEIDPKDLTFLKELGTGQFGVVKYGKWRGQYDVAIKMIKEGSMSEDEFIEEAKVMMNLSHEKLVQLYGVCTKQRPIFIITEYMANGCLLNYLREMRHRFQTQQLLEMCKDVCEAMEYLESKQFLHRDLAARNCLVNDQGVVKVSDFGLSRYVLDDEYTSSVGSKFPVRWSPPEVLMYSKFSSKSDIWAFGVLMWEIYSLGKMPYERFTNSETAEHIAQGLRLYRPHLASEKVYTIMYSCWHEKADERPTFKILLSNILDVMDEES

| IC50 [nM] | SMILES |
| --- | --- |
| < 100 | CCCc1ccccc1NCC(=O)N[C@@H]1CCCN(c2ncnc3[nH]ccc23)C1 [Example 259] |
| 100 to 999 | Cc1c(Cl)cccc1NCC(=O)N[C@@H]1CCCN(c2ncnc3[nH]ccc23)C1 [Example 261] |
| < 100 | CCc1cccc(NCC(=O)N[C@@H]2CCCN(c3ncnc4[nH]ccc34)C2)c1 [Example 262] |
| 100 to 999 | CC(C)c1ccccc1N[C@@H](C(=O)N[C@@H]1CCCN(c2ncnc3[nH]ccc23)C1)C(C)C [Example 263] |
| < 100 | O=C(CNc1cc(F)cc(C(F)(F)F)c1)N[C@@H]1CCCN(c2ncnc3[nH]ccc23)C1 [Example 264] |
| < 100 | CC(C)(C)C1CCN(S(=O)(=O)c2ccccc2NCC(=O)N[C@@H]2CCCN(c3ncnc4[nH]ccc34)C2)CC1 [Example 265] |
| < 100 | O=C(CNc1ccccc1OC1CCCCC1)N[C@@H]1CCCN(c2ncnc3[nH]ccc23)C1 [Example 266] |
| 100 to 999 | Cc1c(F)cccc1NCC(=O)N[C@@H]1CCCN(c2ncnc3[nH]ccc23)C1 [Example 267] |
| 100 to 999 | Cc1ccccc1NCC(=O)N[C@@H]1CCCN(c2ncnc3[nH]ccc23)C1 [Example 268] |
| 100 to 999 | CC(C)c1ccccc1N[C@H](C)C(=O)N[C@@H]1CCCN(c2ncnc3[nH]ccc23)C1 [Example 269] |
| < 100 | COc1ccc(C)cc1NCC(=O)N[C@@H]1CCCN(c2ncnc3[nH]ccc23)C1 [Example 270] |
| < 100 | Cc1c(Cl)cccc1NCC(=O)N[C@@H]1CCCN(c2ncnc3[nH]ccc23)C1 [Example 272] |
| < 100 | Cc1ccc(F)cc1NCC(=O)N[C@@H]1CCCN(c2ncnc3[nH]ccc23)C1 [Example 273] |
| 100 to 999 | O=C(CNc1cccc2ccccc12)N[C@@H]1CCCN(c2ncnc3[nH]ccc23)C1 [Example 274] |
| 100 to 999 | O=C(CNc1ccc(F)c(I)c1)N[C@@H]1CCCN(c2ncnc3[nH]ccc23)C1 [Example 275] |
| 100 to 999 | O=C(CNc1ccccc1OCC(F)(F)F)N[C@@H]1CCCN(c2ncnc3[nH]ccc23)C1 [Example 277] |
| 100 to 999 | O=C(CNc1cc(C(F)(F)F)ccc1N1CCCC1)N[C@@H]1CCCN(c2ncnc3[nH]ccc23)C1 [Example 278] |
| 100 to 999 | CCC[C@@H](Nc1ccccc1C(C)C)C(=O)N[C@@H]1CCCN(c2ncnc3[nH]ccc23)C1 [Example 279] |
| 100 to 999 | O=C(CNc1cccc(OC2CCCC2)c1)N[C@@H]1CCCN(c2ncnc3[nH]ccc23)C1 [Example 281] |
| 100 to 999 | Cc1cc(C)cc(NCC(=O)N[C@@H]2CCCN(c3ncnc4[nH]ccc34)C2)c1 [Example 282] |
| < 100 | CC(C)CCOc1cccc(NCC(=O)N[C@@H]2CCCN(c3ncnc4[nH]ccc34)C2)c1 [Example 283] |
| 100 to 999 | CC(C)c1ccccc1N[C@@H](C(=O)N[C@@H]1CCCN(c2ncnc3[nH]ccc23)C1)C1CC1 [Example 284] |
| 100 to 999 | O=C(CNc1cc(F)c(F)c(F)c1)N[C@@H]1CCCN(c2ncnc3[nH]ccc23)C1 [Example 285] |
| 100 to 999 | O=C(CNc1ccc(Cl)c(Cl)c1)N[C@@H]1CCCN(c2ncnc3[nH]ccc23)C1 [Example 286] |
| 100 to 999 | Cc1ccc(NCC(=O)N[C@@H]2CCCN(c3ncnc4[nH]ccc34)C2)cc1Cl [Example 287] |
| 100 to 999 | CN(C)S(=O)(=O)c1ccccc1NCC(=O)N[C@@H]1CCCN(c2ncnc3[nH]ccc23)C1 [Example 288] |
| 100 to 999 | Cc1nc(-c2cccc(NCC(=O)N[C@@H]3CCCN(c4ncnc5[nH]ccc45)C3)c2)cs1 [Example 289] |

| IC50 [nM] | SMILES |
| --- | --- |
| 100 to 999 | O=C(CNc1ccccc1N1CCCCC1)N[C@@H]1CCCN(c2ncnc3[nH]ccc23)C1 [Example 290] |
| 100 to 999 | Cc1cccc(NCC(=O)N[C@@H]2CCCN(c3ncnc4[nH]ccc34)C2)c1C [Example 292] |
| 100 to 999 | Cc1ccc(NCC(=O)N[C@@H]2CCCN(c3ncnc4[nH]ccc34)C2)cc1F [Example 293] |
| 100 to 999 | CC[C@@H](Nc1ccccc1C(C)C)C(=O)N[C@@H]1CCCN(c2ncnc3[nH]ncc23)C1 [Example 294] |
| 100 to 999 | Cc1ccc(Cl)cc1NCC(=O)N[C@@H]1CCCN(c2ncnc3[nH]ccc23)C1 [Example 295] |
| 100 to 999 | CC(C)(O)[C@@H](Nc1cc(F)cc(Cl)c1)C(=O)N[C@@H]1CCCN(c2ncnc3[nH]ccc23)C1 [Example 296] |
| 100 to 999 | N#Cc1cc(Cl)cc(NCC(=O)N[C@@H]2CCCN(c3ncnc4[nH]ccc34)C2)c1 [Example 297] |
| 100 to 999 | O=C(CNc1cccc(Cl)c1Cl)N[C@@H]1CCCN(c2ncnc3[nH]ccc23)C1 [Example 299] |
| 100 to 999 | CC(C)c1ccccc1N[C@@H](C(=O)N[C@@H]1CCCN(c2ncnc3[nH]ccc23)C1)C(C)(C)C [Example 300] |
| 100 to 999 | O=C(CNc1cccc(N2CCCC2)c1)N[C@@H]1CCCN(c2ncnc3[nH]ccc23)C1 [Example 301] |
| 100 to 999 | Cc1ccc(C)n1-c1cccc(NCC(=O)N[C@@H]2CCCN(c3ncnc4[nH]ccc34)C2)c1 [Example 302] |
| 100 to 999 | O=C(CNc1cccc(-n2cccc2)c1)N[C@@H]1CCCN(c2ncnc3[nH]ccc23)C1 [Example 303] |
| 100 to 999 | O=C(CNc1cccc(-c2cn3ccccc3n2)c1)N[C@@H]1CCCN(c2ncnc3[nH]ccc23)C1 [Example 304] |
| 100 to 999 | O=C(CNc1cccc(-c2cccs2)c1)N[C@@H]1CCCN(c2ncnc3[nH]ccc23)C1 [Example 305] |
| 100 to 999 | C[C@H](O)[C@@H](Nc1cc(F)cc(Cl)c1)C(=O)N[C@@H]1CCCN(c2ncnc3[nH]ccc23)C1 [Example 306] |
| 100 to 999 | C[C@@H](O)[C@@H](Nc1cc(F)cc(Cl)c1)C(=O)N[C@@H]1CCCN(c2ncnc3[nH]ccc23)C1 [Example 307] |
| 100 to 999 | O=C(CNc1cc(C(F)(F)F)cc(C(F)(F)F)c1)N[C@@H]1CCCN(c2ncnc3[nH]ccc23)C1 [Example 308] |
| 100 to 999 | COc1ccccc1NCC(=O)N[C@@H]1CCCN(c2ncnc3[nH]ccc23)C1 [Example 309] |
| 100 to 999 | CCOc1ccccc1NCC(=O)N[C@@H]1CCCN(c2ncnc3[nH]ccc23)C1 [Example 310] |
| 100 to 999 | COc1ccc(Cl)cc1NCC(=O)N[C@@H]1CCCN(c2ncnc3[nH]ccc23)C1 [Example 312] |
| 100 to 999 | Cc1ccc(Cl)c(NCC(=O)N[C@@H]2CCCN(c3ncnc4[nH]ccc34)C2)c1 [Example 313] |
| 100 to 999 | Nc1cc(N2CCC[C@@H](NC(=O)[C@H](Nc3cc(F)cc(Cl)c3)C3CC3)C2)ncn1 [Example 314] |
| 100 to 999 | CC(C)Oc1cccc(NCC(=O)N[C@@H]2CCCN(c3ncnc4[nH]ccc34)C2)c1 [Example 315] |
| 100 to 999 | CCOc1cccc(NCC(=O)N[C@@H]2CCCN(c3ncnc4[nH]ccc34)C2)c1 [Example 316] |
| 100 to 999 | O=C(CNc1ccc(Cl)cc1Cl)N[C@@H]1CCCN(c2ncnc3[nH]ccc23)C1 [Example 317] |
| 100 to 999 | O=C(CNc1ccccc1F)N[C@@H]1CCCN(c2ncnc3[nH]ccc23)C1 [Example 318] |
| 100 to 999 | O=C(CNc1cc(Cl)ccc1Cl)N[C@@H]1CCCN(c2ncnc3[nH]ccc23)C1 [Example 319] |

| IC50 [nM] | SMILES |
| --- | --- |
| 100 to 999 | Nc1ncnc(N2CCC[C@@H](NC(=O)CNc3cc(Cl)cc(Cl)c3)C2)c1CCCO [Example 320] |
| 100 to 999 | O=C(CNc1c(F)cccc1F)N[C@@H]1CCCN(c2ncnc3[nH]ccc23)C1 [Example 321] |
| 100 to 999 | COc1cccc(NCC(=O)N[C@@H]2CCCN(c3ncnc4[nH]ccc34)C2)c1 [Example 322] |
| 100 to 999 | O=C(CNc1ccccc1)N(CCN1CCOCC1)C1CCCN(c2ncnc3[nH]ccc23)C1 (stereo not shown) [Example 323] |
| 100 to 999 | O=C(CNc1cccc2c1CCC2)N[C@@H]1CCCN(c2ncnc3[nH]ccc23)C1 [Example 324] |
| 100 to 999 | NC(=O)c1c(N)ncnc1N1CCC[C@@H](NC(=O)CNc2cc(Cl)cc(Cl)c2)C1 [Example 326] |
| 100 to 999 | COc1cc(NCC(=O)N[C@@H]2CCCN(c3ncnc4[nH]ccc34)C2)cc(C(F)(F)F)c1 [Example 327] |
| > 10000 | O=C(CNc1cccc2nccn12)NC1CCCN(c2ncnc3[nH]ccc23)C1 (stereo not shown) [Example 328] |
| > 10000 | O=C(CNc1cccc2ccncc12)NC1CCCN(c2ncnc3[nH]ccc23)C1 (stereo not shown) [Example 329] |
| > 10000 | O=C(CNC(=O)N1CCCCC1)NC1CCCN(c2ncnc3[nH]ccc23)C1 (stereo not shown) [Example 330] |
| > 10000 | CC(C)n1ccc(NCC(=O)NC2CCCN(c3ncnc4[nH]ccc34)C2)n1 (stereo not shown) [Example 331] |
| > 10000 | O=C(CNc1cccc2ncccc12)NC1CCCN(c2ncnc3[nH]ccc23)C1 (stereo not shown) [Example 332] |
| 1000 to 10000 | O=C(CNc1cccc2cnccc12)NC1CCCN(c2ncnc3[nH]ccc23)C1 (stereo not shown) [Example 333] |
| 1000 to 10000 | O=C(CNc1cccc(C(F)(F)F)n1)NC1CCCN(c2ncnc3[nH]ccc23)C1 (stereo not shown) [Example 334] |
| > 10000 | O=C(CNc1ccc2c(c1)OCO2)NC1CCCN(c2nccc3[nH]ccc23)C1 (stereo not shown) [Example 335] |
| > 10000 | O=C(CNc1cccc2c1OCCO2)NC1CCCN(c2ncnc3[nH]ccc23)C1 (stereo not shown) [Example 336] |
| > 10000 | O=C(CNc1cccc(N2CCNC2=O)c1)NC1CCCN(c2ncnc3[nH]ccc23)C1 (stereo not shown) [Example 337] |
| 1000 to 10000 | O=C(CNc1cccc(N2CCCC2=O)c1)NC1CCCN(c2ncnc3[nH]ccc23)C1 (stereo not shown) [Example 338] |
| > 10000 | CNC(=O)c1cccc(NCC(=O)NC2CCCN(c3ncnc4[nH]ccc34)C2)c1 (stereo not shown) [Example 339] |
| > 10000 | COc1cccc(NCC(=O)NC2CCCN(c3nccc4[nH]ccc34)C2)c1OC (stereo not shown) [Example 340] |
| > 10000 | CC(O)c1cccc(NCC(=O)NC2CCCN(c3ncnc4[nH]ccc34)C2)c1 (stereo not shown) [Example 341] |
| > 10000 | Cn1cccc(NCC(=O)NC2CCCN(c3ncnc4[nH]ccc34)C2)c1=O (stereo not shown) [Example 342] |
| > 10000 | CN1CCN(c2cccc(NCC(=O)NC3CCCN(c4ncnc5[nH]ccc45)C3)c2)CC1 (stereo not shown) [Example 343] |
| > 10000 | CNC(=O)c1cnc(NC2CCCN(c3ncnc4[nH]ccc34)C2)s1 (stereo not shown) [Example 344] |
| > 10000 | CN(C)Cc1cccc(NCC(=O)NC2CCCN(c3ncnc4[nH]ccc34)C2)c1 (stereo not shown) [Example 345] |
